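Protocol summary: plate cells (96-well), add compound at 5 concentrations, incubate 48 h, interpolate endpoints linearly. GI50: concentration for 50% inhibition of growth. TGI denotes the concentration required for complete inhibition of growth.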
Columns and labels:
Assay in all cases: NCI anticancer screen, dose series, 48 h
NCI-H23 lung = test system: NCI-H23 lung
NCI-H460 lung = test system: NCI-H460 lung
NCI-H522 lung = test system: NCI-H522 lung
NCI/ADR-RES ovarian = test system: NCI/ADR-RES ovarian
OVCAR-3 ovarian = test system: OVCAR-3 ovarian
OVCAR-4 ovarian = test system: OVCAR-4 ovarian
OVCAR-5 ovarian = test system: OVCAR-5 ovarian
OVCAR-8 ovarian = test system: OVCAR-8 ovarian
PC-3 prostate = test system: PC-3 prostate
RPMI-8226 leukemia = test system: RPMI-8226 leukemia
RXF 393 renal = test system: RXF 393 renal
SF-268 CNS = test system: SF-268 CNS
SF-295 CNS = test system: SF-295 CNS
SF-539 CNS = test system: SF-539 CNS
SK-MEL-2 melanoma = test system: SK-MEL-2 melanoma
SK-MEL-28 melanoma = test system: SK-MEL-28 melanoma
SK-MEL-5 melanoma = test system: SK-MEL-5 melanoma
SK-OV-3 ovarian = test system: SK-OV-3 ovarian
SN12C renal = test system: SN12C renal
SNB-19 CNS = test system: SNB-19 CNS
SNB-75 CNS = test system: SNB-75 CNS
SR leukemia = test system: SR leukemia
SW-620 colon = test system: SW-620 colon
T-47D breast = test system: T-47D breast
TK-10 renal = test system: TK-10 renal
U251 CNS = test system: U251 CNS
UACC-257 melanoma = test system: UACC-257 melanoma
UACC-62 melanoma = test system: UACC-62 melanoma
UO-31 renal = test system: UO-31 renal

O=[N+]([O-])c1ccc2c(c1)C(c1ccccc1Cl)=Nc1c(n[nH]c1-c1cccnc1)N2
TGI (NCI-H23 lung): > 25 µM | GI50 (NCI-H460 lung): > 25 µM | TGI (NCI-H460 lung): > 25 µM | GI50 (NCI-H522 lung): > 25 µM | TGI (NCI-H522 lung): > 25 µM | GI50 (NCI/ADR-RES ovarian): > 25 µM | TGI (NCI/ADR-RES ovarian): > 25 µM | GI50 (OVCAR-3 ovarian): > 25 µM | TGI (OVCAR-3 ovarian): > 25 µM | GI50 (OVCAR-4 ovarian): > 19.8 µM | TGI (OVCAR-4 ovarian): > 25 µM | GI50 (OVCAR-5 ovarian): > 25 µM | TGI (OVCAR-5 ovarian): > 25 µM | GI50 (OVCAR-8 ovarian): > 25 µM | TGI (OVCAR-8 ovarian): > 25 µM | GI50 (PC-3 prostate): > 25 µM | TGI (PC-3 prostate): > 25 µM | GI50 (RPMI-8226 leukemia): > 25 µM | TGI (RPMI-8226 leukemia): > 25 µM | GI50 (RXF 393 renal): > 25 µM | TGI (RXF 393 renal): > 25 µM | GI50 (SF-268 CNS): > 25 µM | TGI (SF-268 CNS): > 25 µM | GI50 (SF-295 CNS): > 25 µM | TGI (SF-295 CNS): > 25 µM | GI50 (SF-539 CNS): > 25 µM | TGI (SF-539 CNS): > 25 µM | GI50 (SK-MEL-2 melanoma): > 25 µM | TGI (SK-MEL-2 melanoma): > 25 µM | GI50 (SK-MEL-28 melanoma): > 25 µM | TGI (SK-MEL-28 melanoma): > 25 µM | GI50 (SK-MEL-5 melanoma): > 25 µM | TGI (SK-MEL-5 melanoma): > 25 µM | GI50 (SK-OV-3 ovarian): > 25 µM | TGI (SK-OV-3 ovarian): > 25 µM | GI50 (SN12C renal): > 25 µM | TGI (SN12C renal): > 25 µM | GI50 (SNB-19 CNS): > 25 µM | TGI (SNB-19 CNS): > 25 µM | GI50 (SNB-75 CNS): > 10.1 µM | TGI (SNB-75 CNS): > 25 µM | GI50 (SR leukemia): > 25 µM | TGI (SR leukemia): > 25 µM | GI50 (SW-620 colon): > 25 µM | TGI (SW-620 colon): > 25 µM | GI50 (T-47D breast): > 25 µM | TGI (T-47D breast): > 25 µM | GI50 (TK-10 renal): > 25 µM | TGI (TK-10 renal): > 25 µM | GI50 (U251 CNS): > 25 µM | TGI (U251 CNS): > 25 µM | GI50 (UACC-257 melanoma): > 25 µM | TGI (UACC-257 melanoma): > 25 µM | GI50 (UACC-62 melanoma): > 25 µM | TGI (UACC-62 melanoma): > 25 µM | GI50 (UO-31 renal): > 25 µM | TGI (UO-31 renal): > 25 µM

— PubChem BioAssay (NCI)
